Assay [1] relates to A2780 ovarian. The assay can be described thus: Sulphorodamine B test at single concentration, A2780. The format is cell-based. The settings on record: Homo sapiens, 500 nM, 72 h. As for the experimental part:
(§1) The antiproliferative activity of novel Hsp90 inhibitors was also evaluated on various cancerous cell lines by means of the sulphorodamine B test (i.e., NCI-H460 non-small cell lung carcinoma, A431 epidermoid, A2780 ovarian, MDA-MB436 triple-negative breast, U87MG glioblastoma, A498 renal, HCT116 colon, MeWo melanoma, MiaPaCa2 pancreas, HeLa cervix uteri, NB4 promyelocytic leukemia). NCI-H460, A431, MDA-MB436, A2780, A498, HeLa, NB4 tumour cells were grown in RPMI 1640 containing 10% fetal bovine serum (i.e., FBS from GIBCO), L-glutamine, and 50 μg/ml gentamycin sulfate.
(§2) All cell lines were maintained in a 37° C. incubator with saturated humidity and an atmosphere containing 95% air and 5% CO2, and were sub-cultured every 2-3 days. Tumour cells were seeded in 96-well tissue culture plates at approximately 10% confluence and were allowed to attach and recover for 24 h.
(§3) Varying concentrations of the drugs were then added to each well to calculate their IC50 value (the concentration which inhibits the 50% of cell survival). The plates were incubated at 37° C. for 72 h. At the end of the treatment, the plates were washed by remotion of the supernatant and addition of PBS 3 times. 200 μl PBS and 50 μl of cold 80% trichloroacetic acid (TCA) were added. The plates were incubated on ice for at least 1 h. TCA was removed, the plates were washed 3 times by immersion in distilled-water and dried on paper and at 40° C. for […]. Then 200 μl of 0.4% sulphorodamine B in 1% acetic acid were added. The plates were incubated at room temperature for 30 min. Sulphorodamine B was removed, the plates were washed by immersion in 1% acetic acid for 3 times, then they were dried on paper and at 40° C. for 5 min. Then, 200 μl Tris 10 mM were added, the plates were kept under stirring for 20 min. The cell survival was determined as optical density by a Multiskan […] at 540 nm. The amount of cells killed was calculated as the percentage decrease in sulphorodamine B binding compared with control cultures.
(§4) The other cell lines were screened against one single concentration of the various inhibitors (i.e., 500 nM), all experiments being made in octuplicate, following the protocol described at example 35. Since NB4 cell line was grown in suspension, a further step of centrifugation (i.e., 1600 g for 10 min) was added after the 72 hour incubation period.

The test system of assay [2] is HCT116 colon. The assay is described as follows: Sulphorodamine B test at single concentration, HCT116. The format is cell-based. The settings on record: Homo sapiens, HCT-116; 500 nM, 72 h. The method, then:
as §1
HCT116 cells were cultured in McCoy's medium containing 10% FBS, L-glutamine, and 50 μg/ml gentamycin sulfate.
as §2, §3, §4

Assay [3] has as its system MeWo melanoma. The assay is described as follows: Sulphorodamine B test at single concentration, MeWo. The format is cell-based. The settings on record: Homo sapiens, 500 nM, 72 h. As for the experimental part: as §1
(§5) MeWo and U87-MG cells were cultured in Eagle's Minimum Essential Medium (i.e., EMEM) containing 10% FBS, L-glutamine, 1 mM sodium pyruvate, 0.1 mM non-essential amino acids, 1.5 g/l sodium bicarbonate, and 50 μg/ml gentamycin sulphate.
as §2, §3, §4

In assay [4] the test system is A498 renal. The assay is described as follows: Sulphorodamine B test at single concentration, A498. The format is cell-based. Conditions: Homo sapiens, 500 nM, 72 h. The method, then:
as §1, §2, §3, §4

Assay [5] deals with T1, Hsp90 (Homo sapiens, UniProt P07900).
T1 construct: purchased Stressgen SPP-776
The assay can be described thus: Fluorescence Polarization (FP) binding, GM-BODIPY displacement from Hsp90. Conditions: GM-BODIPY tracer, 4° C. for 4 hours. The method, then: GM-BODIPY (PerkinElmer, CUSN60342000MG) was previously dissolved in DMSO to obtain 10 mM stock solutions and kept at −20° C. until use.
Hsp90 (Stressgen, SPP-776), was previously dissolved in assay buffer (HFB) to form 2.2 μM stock solutions and kept at −80° C. until use.
The compounds were previously dissolved in DMSO to obtain stock solutions and kept at −20° C. The day of experiment, the compounds were prepared by serial dilutions in assay buffer (HFB) containing 20 mM HEPES (K) pH 7.3, 50 mM KCl, 5 mM MgCl2, 20 mM Na2MoO4 and 0.01% NP40. Before each use, 0.1 mg/ml Bovine Gamma globulin and 2 mM DTT were freshly added.
Fluorescence Polarization (FP) was performed in Opti-Plate™-96F well plates (Perkin Elmer, Zaventem, Belgium) using a plate reader (Wallac Envision 2101 multilabel reader, Perkin Elmer, Zaventem, Belgium). To evaluate the binding affinity of the molecules, 50 μl of the GM-BODIPY solution (100 nM) were added to 125 nM of Hsp90 in the presence of 5 μl of the test compounds at increasing concentrations. The plate was mixed on a shaker at 4° C. for 4 hours, and the FP values in mP (millipolarization units) were recorded. The IC50 values were calculated as the inhibitor concentration where 50% of the tracer is displaced; each data point is the result of the average of triplicate wells, and was determined from a plot using nonlinear least-squares analysis. Curve fitting was performed using
Prism GraphPad software program (GraphPad software, Inc., San Diego, Calif.).
For orientation: Polarisation of emitted light reports the rotation of a fluorescent probe.

Assay [6] has as its system NCI-H460 non-small cell lung carcinoma. The assay can be described thus: Cytotoxicity assay, sulphorodamine B test, NCI-H460. The format is cell-based. Conditions: Homo sapiens, NCI-H460; 72 h, sulphorodamine B. As for the experimental part: as §1, §2, §3
For assay [7], the system named is NB4 promyelocytic leukemia. The assay is described as follows: Sulphorodamine B test at single concentration, NB4. The format is cell-based. The settings on record: 500 nM, 72 h, suspension cells. The method, then:
as §1, §2, §3, §4

Assay [8] concerns A431 epidermoid. The assay is described as follows: Sulphorodamine B test at single concentration, A431. The format is cell-based. The settings on record: Homo sapiens, A-431; 500 nM, 72 h. As for the experimental part: as §1, §2, §3, §4
The test system of assay [9] is U87MG glioblastoma. The assay is described as follows: Sulphorodamine B test at single concentration, U87MG. The format is cell-based. Conditions: Homo sapiens, U-87 MG; 500 nM, 72 h. As for the experimental part: as §1, §5, §2, §3, §4
The subject of assay [10] is MiaPaCa2 pancreas. The assay is described as follows: Sulphorodamine B test at single concentration, MiaPaCa2. The settings on record: Homo sapiens, MIA PaCa-2; 500 nM, 72 h. The format is cell-based. As for the experimental part: as §1
MiaPaCa2 cells were cultured in DMEM medium containing 10% FBS, L-glutamine, and 50 μg/ml gentamycin sulfate.
as §2, §3, §4

In assay [11] the test system is HeLa cervix uteri. The assay is described as follows: Sulphorodamine B test at single concentration, HeLa. The format is cell-based. Conditions: Homo sapiens, 500 nM, 72 h. The method, then:
as §1, §2, §3, §4

In assay [12] the test system is MDA-MB436 triple-negative breast. The assay is described as follows: Sulphorodamine B test at single concentration, MDA-MB436. The format is cell-based. The settings on record: Homo sapiens, MDA-MB-436; 500 nM, 72 h. As for the experimental part: as §1, §2, §3, §4

Some results are limits rather than exact numbers.

As for `CCNC(=O)c1nnn(-c2cc(C(C)C)c(O)cc2O)c1-c1ccc(CN2CCCC(O)C2)cc1` (racemic) [Example 6, (R,S)-1-(2,4-dihydroxy-5-isopropyl-phenyl)-5-[4-(3-hydroxy-piperidin-1-ylmethyl)-phenyl]-1H-[1,2,3]triazole-4-carboxylic acid ethylamide], the inhibition at 0.5 µM in [1], in [2], in [3], in assay [4], in [7] and in assay [8] was at least 50% in each case. Moreover, the inhibition at 0.5 µM in [9], in assay [10], in assay [11] and in [12] was at least 50% in each case. For the same compound, the figures for the IC50 in [5] and in assay [6] were under 50 nM and 50 to 100 nM, respectively.
Regarding `CC(C)c1cc(-n2nncc2-c2ccc(CN3CCCC(O)C3)cc2)c(O)cc1O` (stereo not drawn) [Example 2, 4-{5-[4-(3-hydroxy-piperidin-1-ylmethyl)-phenyl]-[1,2,3]triazol-1-yl}-6-isopropyl-benzene-1,3-diol], the inhibition at 0.5 µM in [1] is at least 50%; in [2], at least 50%; in assay [3] it was at least 50%; in assay [4], 30 to 50%; in assay [7], at least 50%; in assay [8], at least 50%. Moreover, the inhibition at 0.5 µM is 30 to 50% in assay [9], at least 50% in assay [10], at least 50% in assay [11] and at least 50% in assay [12]. Also, the IC50 in assay [5] and in assay [6] was under 50 nM in each case.
Turning to `CCNC(=O)c1nnn(-c2cc(C(C)C)c(O)cc2O)c1-c1ccc(CN2CCOCC2)cc1` [Example 5, 1-(2,4-dihydroxy-5-isopropyl-phenyl)-5-(4-morpholin-4-ylmethyl-phenyl)-1H-[1,2,3]triazole-4-carboxylic ethyl amide], the inhibition at 0.5 µM in assay [1], in assay [2], in [3], in [4], in assay [7] and in assay [8] was at least 50% in each case. Further, the inhibition at 0.5 µM in [9], in assay [10], in assay [11] and in assay [12] was at least 50% in each case. Also, the IC50 in assay [5] and in [6] was under 50 nM throughout.
As for `CCNC(=O)c1nnn(-c2cc(C(C)C)c(O)cc2O)c1-c1ccc(CN(CC)CCO)cc1` [Example 7, 1-(2,4-dihydroxy-5-isopropyl-phenyl)-5-(4-{[ethyl-(2-hydroxy-ethyl)-amino]-methyl}-phenyl)-1H-[1,2,3]triazole-4-carboxylic acid ethylamide], the inhibition at 0.5 µM in assay [1], in assay [2], in assay [3], in assay [4], in assay [7] and in assay [8] was at least 50% throughout. For the same compound, the inhibition at 0.5 µM in [9], in assay [10], in [11] and in [12] was at least 50% in each case. For the same compound, the IC50 is under 50 nM in assay [5] and 50 to 100 nM in [6].
As to `CCNC(=O)c1nnn(-c2cc(C(C)C)c(O)cc2O)c1-c1ccc(CN2CCC(N(C)C)CC2)cc1` [Example 13, 1-(2,4-dihydroxy-5-isopropyl-phenyl)-5-[4-(4-dimethylamino-piperidin-1-ylmethyl)-phenyl]-1H-[1,2,3]triazole-4-carboxylic acid ethylamide], the inhibition at 0.5 µM in assay [1] is at least 50%; in [2], at least 50%; in assay [3] it was at least 50%; in assay [4] it was 30 to 50%; in assay [8] it was at least 50%; in [9] it was at least 50%. Besides, the inhibition at 0.5 µM was at least 50% in [10], 30 to 50% in [11] and at least 50% in [12]. In addition, the 50% inhibitory concentration (IC50) was under 50 nM in assay [5] and 100 to 500 nM in assay [6].
As for `CCNC(=O)c1nnn(-c2cc(C(C)C)c(O)cc2O)c1-c1ccc(CN2CCCC2)cc1` [Example 21, 1-(2,4-dihydroxy-5-isopropyl-phenyl)-5-(4-pyrrolidin-1-ylmethyl-phenyl)-1H-[1,2,3]triazole-4-carboxylic acid ethylamide], the inhibition at 0.5 µM in assay [1], in assay [2], in assay [3], in [4], in assay [7] and in assay [8] was at least 50% in each case. The inhibition at 0.5 µM in assay [9], in assay [10], in assay [11] and in [12] was at least 50% in each case. For the same compound, the IC50 in assay [5] was under 50 nM.
Consider `CCNC(=O)c1nnn(-c2cc(C(C)C)c(O)cc2O)c1-c1ccc(Cn2ccnc2)cc1` [Example 22, 1-(2,4-dihydroxy-5-isopropyl-phenyl)-5-(4-imidazol-1-ylmethyl-phenyl)-1H-[1,2,3]triazole-4-carboxylic acid ethylamide], for which the inhibition at 0.5 µM in [1], in [2], in assay [3], in [4], in assay [7] and in assay [8] was at least 50% throughout. In addition, the inhibition at 0.5 µM in assay [9], in assay [10], in [11] and in assay [12] was at least 50% throughout. Further, the IC50 in assay [5] was under 50 nM.

What is called inhibition is the share of the control response that was lost under treatment. Broadly, the IC50 is the concentration at which inhibition is half-maximal. Higher therefore signals lower potency.
